Assay results: patent US20060040871A1, “Bacterial transforming agent” (priority 2003, published 2006)
Read-outs that look alike come from different tables or passages of the source.

What was measured:
[1] = tested on: vancomycin- and gentamicin-resistant Enterococcus faecium; test: microbe, parasite or virus in culture; assay type: cell-based; conditions: for MIC of vancomycin: GBE 0.02M
Excerpt: The agents of the present invention are not limited to the reversal of resistance in Staphylococcus. The test strains in Table 5 are patient-isolates of vancomycin- and gentamicin-resistant Enterococcus faecium. At the time of isolation, they were commonly resistant to all clinically useable antimicrobial agents.

MRSA [2] = test: Screening on Isosensitest agar with incorporated BTA and 10 μg methicillin discs; assay type: cell-based, Staphylococcus aureus; conditions: VRE and MRSA
Description: To find substances related to GBE that might have increased potency, various substances, including those with additional glycine moieties and benzylates, have been screened. Screening was carried out using Isosensitest agar (Oxoid, UK) into which various levels of potential BTAs were incorporated at levels between 0.01 and 1.0%. The agar with incorporated BTA was then used in the manner of a standard antibiotic sensitivity test using 10 μg methicillin discs. The test organism was inoculated onto the agar surface at a concentration suitable to achieve confluent growth after 18 hours incubation at 30° C. After incubation, zone diameters were compared with that achieved by the control plate (Isosensitest alone) for each test organism.

MRSA [3] = test: MIC of methicillin for MRSA isolates grown with glycine or GBE (Table 1); assay type: cell-based, Staphylococcus aureus; conditions: for MIC of methicillin: GBE 0.001M (0.2%)
MRSA [4] = assay type: cell-based, Staphylococcus aureus; conditions: GBE 0.00075M [0.15%]
Excerpt: Stored frozen plasma was pooled from five subjects.
Human plasma may bind or otherwise inactivate foreign substances and good activity in plasma is indicative of good in vivo activity.

MRSA [5] = assay type: cell-based, Staphylococcus aureus; conditions: agents not hydrolysed by staphylococcal β-lactamase

NCC(=O)OCc1ccccc1 [GBE, Glycine Benzyl Ester]
strains tested with complete transformation (target MIC of vancomycin 2 mg/l) ([1]; 0.02 M GBE, Table 5): 100%
MIC of vancomycin ([1]; ATCC 29212): 1 µg/mL
MIC of vancomycin ([1]; BBC): 2 µg/mL
MIC of vancomycin ([1]; E254): 2 µg/mL
MIC of vancomycin ([1]; E267): 2 µg/mL
MIC of vancomycin ([1]; E271): 2 µg/mL
MIC of vancomycin ([1]; E285): 2 µg/mL
MIC of vancomycin ([1]; E297): 2 µg/mL
MIC of vancomycin ([1]; GBC): 2 µg/mL
MIC of vancomycin ([1]; S226): 2 µg/mL
MIC of vancomycin ([1]; S227): 2 µg/mL
MIC of vancomycin ([1]; S283): 2 µg/mL
MIC of vancomycin ([1]; S302): 2 µg/mL
MIC of vancomycin ([1]; S315): 1 µg/mL
MIC of vancomycin ([1]; S317): 2 µg/mL
MIC of vancomycin ([1]; S319): 2 µg/mL
MIC of vancomycin ([1]; S333): 2 µg/mL
MIC of vancomycin ([1]; S337): 2 µg/mL
MIC of vancomycin ([1]; S393): 2 µg/mL
MIC of vancomycin ([1]; S497): 1 µg/mL
MIC of vancomycin ([1]; S556): 1 µg/mL
MIC of vancomycin ([1]; WBC): 2 µg/mL
activity against VRE and MRSA relative to glycylglycine benzyl ester (MRSA [2]): greater activity
strains tested with complete transformation (MRSA [3]; 0.02 M glycylbenzyl ester, said of Table 1): 100%
MIC of methicillin (MRSA [3]; CD40 (EMRSA-1)): 2 µg/mL
MIC of methicillin (MRSA [3]; DS09 (EMRSA-1)): 2 µg/mL
MIC of methicillin (MRSA [3]; E15-97 (EMRSA-15)): 2 µg/mL
MIC of methicillin (MRSA [3]; E16-96 (EMRSA-16)): 2 µg/mL
MIC of methicillin (MRSA [3]; JF1-32 (EMRSA-1)): 2 µg/mL
MIC of methicillin (MRSA [3]; L265): 2 µg/mL
MIC of methicillin (MRSA [3]; L266): 2 µg/mL
MIC of methicillin (MRSA [3]; L267): 2 µg/mL
MIC of methicillin (MRSA [3]; L268): 2 µg/mL
MIC of methicillin (MRSA [3]; L269): 1 µg/mL
MIC of methicillin (MRSA [3]; L270): 1 µg/mL
MIC of methicillin (MRSA [3]; L271): 2 µg/mL
MIC of methicillin (MRSA [3]; L272): 1 µg/mL
MIC of methicillin (MRSA [3]; L273): 1 µg/mL
MIC of methicillin (MRSA [3]; L274): 2 µg/mL
MIC of methicillin (MRSA [3]; L275): 2 µg/mL
MIC of methicillin (MRSA [3]; L276): 2 µg/mL
MIC of methicillin (MRSA [3]; L277): 2 µg/mL
MIC of methicillin (MRSA [3]; L278): 4 µg/mL
MIC of methicillin (MRSA [3]; L279): 2 µg/mL
MIC of methicillin (MRSA [3]; L280): 2 µg/mL
MIC of methicillin (MRSA [3]; L281): 2 µg/mL
MIC of methicillin (MRSA [3]; L282): 2 µg/mL
MIC of methicillin (MRSA [3]; L283): 2 µg/mL
MIC of methicillin (MRSA [3]; L284): 2 µg/mL
MIC of methicillin (MRSA [3]; L285): 2 µg/mL
MIC of methicillin (MRSA [3]; L286): 2 µg/mL
MIC of methicillin (MRSA [3]; L287): 2 µg/mL
MIC of methicillin (MRSA [3]; L288): 2 µg/mL
MIC of methicillin (MRSA [3]; L289): 2 µg/mL
MIC of methicillin (MRSA [3]; L290): 2 µg/mL
MIC of methicillin (MRSA [3]; L291): 2 µg/mL
MIC of methicillin (MRSA [3]; L292): 2 µg/mL
MIC of methicillin (MRSA [3]; L293): 2 µg/mL
MIC of methicillin (MRSA [3]; L294): 2 µg/mL
MIC of methicillin (MRSA [3]; MC01 (EMRSA-1)): 2 µg/mL
MIC of methicillin (MRSA [3]; NCTC 12493): 0.015 µg/mL
MIC of methicillin (MRSA [3]; PS3-32 (EMRSA-1)): 2 µg/mL
MIC of methicillin (MRSA [3]; SN31 (EMRSA-1)): 2 µg/mL
MIC of methicillin (MRSA [3]; ST11 (EMRSA-1)): 2 µg/mL
MIC of methicillin (MRSA [3]; SW2-32 (EMRSA-1)): 2 µg/mL
effect on sensitivity to methicillin compared with glycine (MRSA [3]; Table 1): increased sensitivity to methicillin to a much greater extent than glycine
MIC of methicillin (MRSA [4]; 5518 (EMRSA-1), +1% human plasma): 4 µg/mL
MIC of methicillin (MRSA [4]; 5518 (EMRSA-1), no plasma): 2 µg/mL
MIC of methicillin (MRSA [4]; L277, +1% human plasma): 8 µg/mL
MIC of methicillin (MRSA [4]; L277, no plasma): 4 µg/mL
MIC of methicillin (MRSA [4]; L278, +1% human plasma): 16 µg/mL
MIC of methicillin (MRSA [4]; L278, no plasma): 8 µg/mL
MIC of methicillin (MRSA [4]; L279, +1% human plasma): 16 µg/mL
MIC of methicillin (MRSA [4]; L279, no plasma): 4 µg/mL
MIC of methicillin (MRSA [4]; L280, +1% human plasma): 8 µg/mL
MIC of methicillin (MRSA [4]; L280, no plasma): 4 µg/mL
MIC of methicillin (MRSA [4]; L281, +1% human plasma): 8 µg/mL
MIC of methicillin (MRSA [4]; L281, no plasma): 4 µg/mL
MIC of methicillin (MRSA [4]; L282, +1% human plasma): 16 µg/mL
MIC of methicillin (MRSA [4]; L282, no plasma): 4 µg/mL
MIC of methicillin (MRSA [4]; L283, +1% human plasma): 16 µg/mL
MIC of methicillin (MRSA [4]; L283, no plasma): 4 µg/mL
MIC of methicillin (MRSA [4]; L284, +1% human plasma): 8 µg/mL
MIC of methicillin (MRSA [4]; L284, no plasma): 2 µg/mL
MIC of methicillin (MRSA [4]; L285, +1% human plasma): 16 µg/mL
MIC of methicillin (MRSA [4]; L285, no plasma): 4 µg/mL
MIC of methicillin (MRSA [4]; L286, +1% human plasma): 8 µg/mL
MIC of methicillin (MRSA [4]; L286, no plasma): 4 µg/mL
MIC of methicillin (MRSA [4]; L287, +1% human plasma): 16 µg/mL
MIC of methicillin (MRSA [4]; L287, no plasma): 4 µg/mL
MIC of methicillin (MRSA [4]; L288, +1% human plasma): 16 µg/mL
MIC of methicillin (MRSA [4]; L288, no plasma): 2 µg/mL
MIC of methicillin (MRSA [4]; L289, +1% human plasma): 16 µg/mL
MIC of methicillin (MRSA [4]; L289, no plasma): 4 µg/mL
MIC of methicillin (MRSA [4]; L290, +1% human plasma): 8 µg/mL
MIC of methicillin (MRSA [4]; L290, no plasma): 4 µg/mL
MIC of methicillin (MRSA [4]; L291, +1% human plasma): 16 µg/mL
MIC of methicillin (MRSA [4]; L291, no plasma): 4 µg/mL
MIC of methicillin (MRSA [4]; L292, +1% human plasma): 32 µg/mL
MIC of methicillin (MRSA [4]; L292, no plasma): 4 µg/mL
MIC of methicillin (MRSA [4]; L293, +1% human plasma): 8 µg/mL
MIC of methicillin (MRSA [4]; L293, no plasma): 2 µg/mL
MIC of methicillin (MRSA [4]; L294, +1% human plasma): 8 µg/mL
MIC of methicillin (MRSA [4]; L294, no plasma): 2 µg/mL
sensitivity of MRSA to other β-lactam agents in the presence of GBE (MRSA [5]): sensitive to cephalosporins and other β-lactam agents
